PubChem BioAssay (NCI)
Where “and” joins values, the source holds several entries; their conditions need not be identical. Identical values can stand only once.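 Values below derive from 48-hour exposures of cells grown in 96-well plates, with endpoints linearly interpolated between the two concentrations bracketing the appropriate inhibition level. GI50 is the concentration that inhibits growth by half. TGI: concentration producing complete growth inhibition.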

These compounds were tested on SR leukemia (assay: NCI tumour cell line growth inhibition, 48 h).
Work on `O=C1CCCCN1CCCCC#Cc1ccccc1C#Cc1ccc([N+](=O)[O-])cc1` yielded a GI50 of 25.5 nM and a TGI of 2.14 µM.
With `CCOc1cc2c(Cl)ncnc2c(OCC)c1OCC` the GI50 was 1180 nM and the TGI was 4.31 µM.
`Oc1ccc2ccccc2c1N=Nc1nccs1` was tested, and the GI50 was 111 nM.
With `CC(=O)OCCN1c2ccccc2Sc2cnccc21` the TGI was > 10 µM.
`CC(C)(CC(=O)Nc1ccccc1)C(=O)O` was tested, and the TGI was > 100 µM.
For `Cn1c(=O)c2[nH]c(SCc3ccccn3)nc2n(C)c1=S`, the TGI was > 100 µM.
For `COc1cc2c(c(O)c1Br)C(=O)c1c(O)cc(C[C@H](C)O)cc1[C@H]2[C@H]1c2cc(C[C@H](C)O)cc(O)c2C(=O)c2c1cc(OC)c(Br)c2O`, the GI50 was 3040 nM and 3980 nM and the TGI was 67.5 µM and > 100 µM.
In the case of `COc1ccc(-c2cc(=O)c3ccc(O)cc3o2)cc1OC`, the TGI is reported as > 100 µM.
For `CC[C@]1(O)C[C@@H]2CN(CCc3c([nH]c4ccccc34)[C@@](C(=O)OC)(c3cc4c(cc3OC)N(C)[C@H]3[C@@](O)(C(=O)OC)[C@H](OC(C)=O)[C@]5(CC)C=CCN6CC[C@]43[C@@H]65)C2)C1`, the GI50 was < 10 nM and the TGI was 19.6 µM.
`N#CSc1c[nH]c2cccc(/C=C/C(=O)/C=C(/C=C/c3cccc4[nH]cc(SC#N)c34)OB(F)F)c12` was tested, and the GI50 was 345 nM and the TGI was > 100 µM.
With `N#Cc1ccc(O)c(C2=NCC(c3cccc(Oc4ccccc4)c3)O2)c1` (centres undefined) the GI50 was 933 nM and the TGI was > 100 µM.

What follows are compounds tested on ACHN renal (assay: NCI tumour cell line growth inhibition, 48 h).
With `CN1CCN(C(=O)OCc2nc3c(N4CCOCC4)nc(Cl)nc3n2C)CC1` the GI50 was 831 nM and the TGI was 2.11 µM.
With `COC(=O)[C@]12CC[C@@H](C)[C@H](C)[C@@H]1C1=CC[C@@H]3[C@@]4(C)C/C(=N\O)[C@H](O)[C@@]5(C)COC(=C45)C[C@@]3(C)[C@]1(C)CC2` the GI50 was 2580 nM and the TGI was 7.41 µM.
Work on `Oc1c(CN2CCC(N3CCCCC3)CC2)cc(Cc2cc(CN3CCC(N4CCCCC4)CC3)c(O)c3ncccc23)c2cccnc12` yielded a GI50 of 1400 nM and a TGI of 11.7 µM.
`C[C@@H]1OC(O)[C@@H](F)[C@H](O)[C@@H]1O` (some centres undefined) was tested, and the GI50 was > 100000 nM and the TGI was > 100 µM.
For `NC(=O)c1ccc(I)c(N)c1`, the GI50 was > 100000 nM and the TGI was > 100 µM.
`CC/C(=C(/c1ccc(O)cc1)c1ccc(OCCNC)cc1)c1ccccc1` was tested, and the GI50 was 2640 nM and the TGI was 7.52 µM.
With `O=C(/C(Br)=C/c1ccccc1)c1ccccc1` the GI50 was 1220 nM and the TGI was 2.48 µM.
With `C=C1C(=O)O[C@H]2[C@H]1CC/C(Cn1cc(-c3ccc(OC)cc3)nn1)=C\CC[C@@]1(C)O[C@@H]21` the GI50 was 293 nM and the TGI was 1.12 µM.
Work on `O=C1CCCCN1CCCCC#Cc1ccccc1C#Cc1ccc([N+](=O)[O-])cc1` yielded a GI50 of 3440 nM and a TGI of 11.3 µM.
`CCOc1cc2c(Cl)ncnc2c(OCC)c1OCC` was tested, and the GI50 was 14100 nM and the TGI was 27.1 µM.
`Oc1ccc2ccccc2c1N=Nc1nccs1` showed a GI50 of 270 nM and a TGI of 14 µM.
With `CC(=O)OCCN1c2ccccc2Sc2cnccc21` the TGI was > 10 µM.
For `CC(C)(CC(=O)Nc1ccccc1)C(=O)O`, the TGI was > 100 µM.
For `Cn1c(=O)c2[nH]c(SCc3ccccn3)nc2n(C)c1=S`, the TGI was > 100 µM.
In the case of `COc1cc2c(c(O)c1Br)C(=O)c1c(O)cc(C[C@H](C)O)cc1[C@H]2[C@H]1c2cc(C[C@H](C)O)cc(O)c2C(=O)c2c1cc(OC)c(Br)c2O`, the GI50 is reported as 2380 nM and 10500 nM and the TGI is reported as 9.27 µM and 23.1 µM.
`COc1ccc(-c2cc(=O)c3ccc(O)cc3o2)cc1OC` was tested, and the TGI was > 100 µM.
In the case of `CC[C@]1(O)C[C@@H]2CN(CCc3c([nH]c4ccccc34)[C@@](C(=O)OC)(c3cc4c(cc3OC)N(C)[C@H]3[C@@](O)(C(=O)OC)[C@H](OC(C)=O)[C@]5(CC)C=CCN6CC[C@]43[C@@H]65)C2)C1`, the GI50 is reported as < 32.4 nM and the TGI is reported as 73.9 µM.
Compound `N#CSc1c[nH]c2cccc(/C=C/C(=O)/C=C(/C=C/c3cccc4[nH]cc(SC#N)c34)OB(F)F)c12` has a GI50 of 389 nM and a TGI of 1.72 µM.
`N#Cc1ccc(O)c(C2=NCC(c3cccc(Oc4ccccc4)c3)O2)c1` (centres undefined) was tested, and the GI50 was 615 nM and the TGI was 14.3 µM.

These compounds were tested on SNB-19 CNS (assay: NCI tumour cell line growth inhibition, 48 h).
Compound `CN1CCN(C(=O)OCc2nc3c(N4CCOCC4)nc(Cl)nc3n2C)CC1` has a GI50 of 1.65 µM and a TGI of 3.62 µM.
With `COC(=O)[C@]12CC[C@@H](C)[C@H](C)[C@@H]1C1=CC[C@@H]3[C@@]4(C)C/C(=N\O)[C@H](O)[C@@]5(C)COC(=C45)C[C@@]3(C)[C@]1(C)CC2` the GI50 was 10.5 µM and the TGI was 31.5 µM.
Work on `Oc1c(CN2CCC(N3CCCCC3)CC2)cc(Cc2cc(CN3CCC(N4CCCCC4)CC3)c(O)c3ncccc23)c2cccnc12` yielded a GI50 of 2.65 µM and a TGI of 22.5 µM.
For `C[C@@H]1OC(O)[C@@H](F)[C@H](O)[C@@H]1O` (some centres undefined), the GI50 was > 100 µM and the TGI was > 100 µM.
`NC(=O)c1ccc(I)c(N)c1` was tested, and the GI50 was > 100 µM and the TGI was > 100 µM.
With `CC/C(=C(/c1ccc(O)cc1)c1ccc(OCCNC)cc1)c1ccccc1` the GI50 was 3.12 µM and the TGI was 11.9 µM.
For `O=C(/C(Br)=C/c1ccccc1)c1ccccc1`, the GI50 was 13.1 µM and the TGI was 26.1 µM.
Compound `C=C1C(=O)O[C@H]2[C@H]1CC/C(Cn1cc(-c3ccc(OC)cc3)nn1)=C\CC[C@@]1(C)O[C@@H]21` has a GI50 of 6.92 µM and a TGI of 21.4 µM.
For `O=C1CCCCN1CCCCC#Cc1ccccc1C#Cc1ccc([N+](=O)[O-])cc1`, the GI50 was 6.57 µM and the TGI was 19.4 µM.
With `CCOc1cc2c(Cl)ncnc2c(OCC)c1OCC` the GI50 was 8.8 µM and the TGI was 21.4 µM.
With `Oc1ccc2ccccc2c1N=Nc1nccs1` the TGI was > 100 µM.
With `CC(=O)OCCN1c2ccccc2Sc2cnccc21` the TGI was > 10 µM.
In the case of `CC(C)(CC(=O)Nc1ccccc1)C(=O)O`, the TGI is reported as > 100 µM.
`Cn1c(=O)c2[nH]c(SCc3ccccn3)nc2n(C)c1=S` was tested, and the TGI was > 100 µM.
`COc1cc2c(c(O)c1Br)C(=O)c1c(O)cc(C[C@H](C)O)cc1[C@H]2[C@H]1c2cc(C[C@H](C)O)cc(O)c2C(=O)c2c1cc(OC)c(Br)c2O` was tested, and the GI50 was 5.07 µM and 10.4 µM and the TGI was 67.5 µM and 80.1 µM.
For `COc1ccc(-c2cc(=O)c3ccc(O)cc3o2)cc1OC`, the TGI was > 100 µM.
`CC[C@]1(O)C[C@@H]2CN(CCc3c([nH]c4ccccc34)[C@@](C(=O)OC)(c3cc4c(cc3OC)N(C)[C@H]3[C@@](O)(C(=O)OC)[C@H](OC(C)=O)[C@]5(CC)C=CCN6CC[C@]43[C@@H]65)C2)C1` was tested, and the GI50 was < 0.01 µM and the TGI was > 100 µM.
`N#CSc1c[nH]c2cccc(/C=C/C(=O)/C=C(/C=C/c3cccc4[nH]cc(SC#N)c34)OB(F)F)c12` was tested, and the GI50 was 2.33 µM and the TGI was 14.7 µM.
For `N#Cc1ccc(O)c(C2=NCC(c3cccc(Oc4ccccc4)c3)O2)c1` (centres undefined), the GI50 was 1.39 µM and the TGI was > 100 µM.
